In ChEMBL document CHEMBL3992518, “Peptide Macrocycle Inhibitor of Coagulation Factor XII with Subnanomolar Affinity and High Target Selectivity” (J Med Chem, 2017):
*1 amine or outer side, *2 acyl side, *3 side chain or, on linkers, in order; H or OH if unused. Where a SMILES comes first, the peptide text is derived from it. Bridges are numbered along the chain shown (N, C = ends). [ ]: non-standard residue; d: D form. TATA = O=C(CC[*:1])N1CN(C(=O)CC[*:2])CN(C(=O)CC[*:3])C1; Agb = N=C(N)NCC[C@H](N)C(=O)O; Nle = CCCC[C@H](N)C(=O)O; Nva = CCC[C@H](N)C(=O)O

Target: T1, Coagulation factor XII (Homo sapiens, UniProt P00748)
T1 sequence (P00748 whole entry): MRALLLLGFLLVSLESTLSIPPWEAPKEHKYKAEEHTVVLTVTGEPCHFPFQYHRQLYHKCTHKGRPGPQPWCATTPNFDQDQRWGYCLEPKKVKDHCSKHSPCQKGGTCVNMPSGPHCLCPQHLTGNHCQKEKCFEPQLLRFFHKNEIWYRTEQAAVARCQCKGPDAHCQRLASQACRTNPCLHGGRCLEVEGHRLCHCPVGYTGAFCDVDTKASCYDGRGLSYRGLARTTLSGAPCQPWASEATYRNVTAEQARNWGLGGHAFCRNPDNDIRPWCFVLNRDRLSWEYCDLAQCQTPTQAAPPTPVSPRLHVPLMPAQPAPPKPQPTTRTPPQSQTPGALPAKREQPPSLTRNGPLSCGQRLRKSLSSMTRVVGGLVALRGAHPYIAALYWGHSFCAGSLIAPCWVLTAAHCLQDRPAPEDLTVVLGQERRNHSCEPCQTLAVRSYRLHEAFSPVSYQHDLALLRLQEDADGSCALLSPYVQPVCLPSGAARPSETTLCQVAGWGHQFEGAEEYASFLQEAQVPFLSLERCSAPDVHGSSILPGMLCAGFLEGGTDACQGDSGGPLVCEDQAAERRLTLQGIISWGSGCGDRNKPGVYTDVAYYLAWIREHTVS
Assay: Inhibition of human beta factor 12a using fluorogenic substrate Boc-Gln-Gly-Arg-AMC preincubated for 10 mins followed by addition of substrate measured every min for 30 mins

| SMILES | Ki [nM] |
| --- | --- |
| CCC[C@@H]1NC(=O)[C@H](CCCNC(=N)N)NC(=O)[C@H](Cc2ccccc2)NC(=O)[C@@H](NC(=O)[C@@H](N)CCCNC(=N)N)CSCCC(=O)N2CN3CN(C2)C(=O)CCSC[C@H](NC(=O)[C@@H]2CCCN2C1=O)C(=O)N[C@@H](CCCNC(=N)N)C(=O)N[C@@H](CCC(N)=O)C(=O)N[C@@H](CC(C)C)C(=O)N[C@@H](CCCNC(=N)N)C(=O)N[C@H](C(=O)N[C@@H](CCCNC(=N)N)C(=O)N[C@@H](Cc1c[nH]c2ccccc12)C(=O)O)CSCCC3=O (H-RCFR[Nva]PCRQLRCRW-OH; linker 2-7-12 via TATA) | 220 |
| CC(C)C[C@@H]1NC(=O)[C@H](CCC(N)=O)NC(=O)[C@H](CCCNC(=N)N)NC(=O)[C@@H]2CSCCC(=O)N3CN(CN(C3)C(=O)CCSC[C@H](NC(=O)[C@@H](N)CCCNC(=N)N)C(=O)N[C@@H](C(C)C)C(=O)N[C@@H](CCCNC(=N)N)C(=O)N[C@@H](CC(C)C)C(=O)N3CCC[C@H]3C(=O)N2)C(=O)CCSC[C@@H](C(=O)N[C@@H](CCCNC(=N)N)C(=O)N[C@@H](Cc2c[nH]c3ccccc23)C(=O)O)NC(=O)[C@H](CCCNC(=N)N)NC1=O (H-RCVRLPCRQLRCRW-OH; linker 2-7-12 via TATA) | 160 |
| CC(C)C[C@@H]1NC(=O)[C@H](CCC(N)=O)NC(=O)[C@H](CCCNC(=N)N)NC(=O)[C@@H]2CSCCC(=O)N3CN(CN(C3)C(=O)CCSC[C@H](NC(=O)[C@@H](N)CCCNC(=N)N)C(=O)N[C@@H](Cc3csc4ccccc34)C(=O)N[C@@H](CCCNC(=N)N)C(=O)N[C@@H](CC(C)C)C(=O)N3CCC[C@H]3C(=O)N2)C(=O)CCSC[C@@H](C(=O)N[C@@H](CCCNC(=N)N)C(=O)N[C@@H](Cc2c[nH]c3ccccc23)C(=O)O)NC(=O)[C@H](CCCNC(=N)N)NC1=O | 6.8 |
| CC(C)C[C@@H]1NC(=O)[C@H](CCC(N)=O)NC(=O)[C@H](CCCNC(=N)N)NC(=O)[C@@H]2CSCCC(=O)N3CN(CN(C3)C(=O)CCSC[C@H](NC(=O)[C@@H](N)CCCNC(=N)N)C(=O)N[C@@H](Cc3c[nH]c4ccc(O)cc34)C(=O)N[C@@H](CCCNC(=N)N)C(=O)N[C@@H](CC(C)C)C(=O)N3CCC[C@H]3C(=O)N2)C(=O)CCSC[C@@H](C(=O)N[C@@H](CCCNC(=N)N)C(=O)N[C@@H](Cc2c[nH]c3ccccc23)C(=O)O)NC(=O)[C@H](CCCNC(=N)N)NC1=O | 94 |
| CC(C)CC[C@@H]1NC(=O)[C@H](CCC(N)=O)NC(=O)[C@H](CCCNC(=N)N)NC(=O)[C@@H]2CSCCC(=O)N3CN(CN(C3)C(=O)CCSC[C@H](NC(=O)[C@@H](N)CCCNC(=N)N)C(=O)N[C@@H](Cc3ccccc3)C(=O)N[C@@H](CCCNC(=N)N)C(=O)N[C@@H](CC(C)C)C(=O)N3CCC[C@H]3C(=O)N2)C(=O)CCSC[C@@H](C(=O)N[C@@H](CCCNC(=N)N)C(=O)N[C@@H](Cc2c[nH]c3ccccc23)C(=O)O)NC(=O)[C@H](CCCNC(=N)N)NC1=O | 29.4 |
| CC(C)C[C@@H]1NC(=O)[C@H](CCC(N)=O)NC(=O)[C@H](CCCNC(=N)N)NC(=O)[C@@H]2CSCCC(=O)N3CN(CN(C3)C(=O)CCSC[C@H](NC(=O)[C@@H](N)CCCNC(=N)N)C(=O)N[C@@H](Cc3ccc(O)cc3)C(=O)N[C@@H](CCCNC(=N)N)C(=O)N[C@@H](CC(C)C)C(=O)N3CCC[C@H]3C(=O)N2)C(=O)CCSC[C@@H](C(=O)N[C@@H](CCCNC(=N)N)C(=O)N[C@@H](Cc2c[nH]c3ccccc23)C(=O)O)NC(=O)[C@H](CCCNC(=N)N)NC1=O (H-RCYRLPCRQLRCRW-OH; linker 2-7-12 via TATA) | 32.2 |
| CC(C)C[C@@H]1NC(=O)[C@H](CC(N)=O)NC(=O)[C@H](CCCNC(=N)N)NC(=O)[C@@H]2CSCCC(=O)N3CN(CN(C3)C(=O)CCSC[C@H](NC(=O)[C@@H](N)CCCNC(=N)N)C(=O)N[C@@H](Cc3ccccc3)C(=O)N[C@@H](CCCNC(=N)N)C(=O)N[C@@H](CC(C)C)C(=O)N3CCC[C@H]3C(=O)N2)C(=O)CCSC[C@@H](C(=O)N[C@@H](CCCNC(=N)N)C(=O)N[C@@H](Cc2c[nH]c3ccccc23)C(=O)O)NC(=O)[C@H](CCCNC(=N)N)NC1=O (H-RCFRLPCRNLRCRW-OH; linker 2-7-12 via TATA) | 1000 |
| CC(C)C[C@@H]1NC(=O)[C@H](CCC(N)=O)NC(=O)[C@H](CCCNC(=N)N)NC(=O)[C@@H]2CSCCC(=O)N3CN(CN(C3)C(=O)CCSC[C@H](NC(=O)[C@@H](N)CCCNC(=N)N)C(=O)N[C@@H](Cc3ccccc3)C(=O)N[C@@H](CCCNC(=N)N)C(=O)N[C@@H](CC(C)C)C(=O)N[C@@H](CO)C(=O)N2)C(=O)CCSC[C@@H](C(=O)N[C@@H](CCCNC(=N)N)C(=O)N[C@@H](Cc2c[nH]c3ccccc23)C(=O)O)NC(=O)[C@H](CCCNC(=N)N)NC1=O (H-RCFRLSCRQLRCRW-OH; linker 2-7-12 via TATA) | 29.4 |
| CC(C)C[C@@H]1NC(=O)[C@H](CCC(N)=O)NC(=O)[C@H](CCCNC(=N)N)NC(=O)[C@@H]2CSCCC(=O)N3CN(CN(C3)C(=O)CCSC[C@H](NC(=O)[C@@H](N)CCCNC(=N)N)C(=O)N[C@@H](Cc3ccccc3F)C(=O)N[C@@H](CCCNC(=N)N)C(=O)N[C@@H](CC(C)C)C(=O)N3CCC[C@H]3C(=O)N2)C(=O)CCSC[C@@H](C(=O)N[C@@H](CCCNC(=N)N)C(=O)N[C@@H](Cc2c[nH]c3ccccc23)C(=O)O)NC(=O)[C@H](CCCNC(=N)N)NC1=O | 26.8 |
| Cc1ccccc1C[C@@H]1NC(=O)[C@@H](NC(=O)[C@@H](N)CCCNC(=N)N)CSCCC(=O)N2CN3CN(C2)C(=O)CCSC[C@H](NC(=O)[C@@H]2CCCN2C(=O)[C@H](CC(C)C)NC(=O)[C@H](CCCNC(=N)N)NC1=O)C(=O)N[C@@H](CCCNC(=N)N)C(=O)N[C@@H](CCC(N)=O)C(=O)N[C@@H](CC(C)C)C(=O)N[C@@H](CCCNC(=N)N)C(=O)N[C@H](C(=O)N[C@@H](CCCNC(=N)N)C(=O)N[C@@H](Cc1c[nH]c2ccccc12)C(=O)O)CSCCC3=O | 40 |
| CC(C)C[C@@H]1NC(=O)[C@H](CCC(N)=O)NC(=O)[C@H](CCCNC(=N)N)NC(=O)[C@@H]2CSCCC(=O)N3CN(CN(C3)C(=O)CCSC[C@H](NC(=O)[C@@H](N)CCCNC(=N)N)C(=O)N[C@@H](Cc3ccccc3)C(=O)N[C@@H](CCCNC(=N)N)C(=O)N[C@@H](CC(C)C)C(=O)N[C@@H](CC(N)=O)C(=O)N2)C(=O)CCSC[C@@H](C(=O)N[C@@H](CCCNC(=N)N)C(=O)N[C@@H](Cc2c[nH]c3ccccc23)C(=O)O)NC(=O)[C@H](CCCNC(=N)N)NC1=O (H-RCFRLNCRQLRCRW-OH; linker 2-7-12 via TATA) | 104 |
| CC(C)C[C@@H]1NC(=O)[C@H](CCC(N)=O)NC(=O)[C@H](CCCNC(=N)N)NC(=O)[C@@H]2CSCCC(=O)N3CN(CN(C3)C(=O)CCSC[C@H](NC(=O)[C@@H](N)CCCNC(=N)N)C(=O)N[C@@H](Cc3ccccc3)C(=O)N[C@@H](CCCNC(=N)N)C(=O)N[C@@H](C(C)C)C(=O)N3CCC[C@H]3C(=O)N2)C(=O)CCSC[C@@H](C(=O)N[C@@H](CCCNC(=N)N)C(=O)N[C@@H](Cc2c[nH]c3ccccc23)C(=O)O)NC(=O)[C@H](CCCNC(=N)N)NC1=O (H-RCFRVPCRQLRCRW-OH; linker 2-7-12 via TATA) | 570 |
| CCCC[C@@H]1NC(=O)[C@H](CCCNC(=N)N)NC(=O)[C@H](Cc2ccccc2)NC(=O)[C@@H](NC(=O)[C@@H](N)CCCNC(=N)N)CSCCC(=O)N2CN3CN(C2)C(=O)CCSC[C@H](NC(=O)[C@@H]2CCCN2C1=O)C(=O)N[C@@H](CCCNC(=N)N)C(=O)N[C@@H](CCC(N)=O)C(=O)N[C@@H](CC(C)C)C(=O)N[C@@H](CCCNC(=N)N)C(=O)N[C@H](C(=O)N[C@@H](CCCNC(=N)N)C(=O)N[C@@H](Cc1c[nH]c2ccccc12)C(=O)O)CSCCC3=O (H-RCFR[Nle]PCRQLRCRW-OH; linker 2-7-12 via TATA) | > 3000 |
| CC(C)C[C@@H]1NC(=O)[C@H](CCC(N)=O)NC(=O)[C@H](CCCNC(=N)N)NC(=O)[C@@H]2CSCCC(=O)N3CN(CN(C3)C(=O)CCSC[C@H](NC(=O)[C@@H](N)CCCNC(=N)N)C(=O)N[C@@H](Cc3ccccc3)C(=O)N[C@@H](CCNC(=N)N)C(=O)N[C@@H](CC(C)C)C(=O)N3CCC[C@H]3C(=O)N2)C(=O)CCSC[C@@H](C(=O)N[C@@H](CCCNC(=N)N)C(=O)N[C@@H](Cc2c[nH]c3ccccc23)C(=O)O)NC(=O)[C@H](CCCNC(=N)N)NC1=O (H-RCF[Agb]LPCRQLRCRW-OH; linker 2-7-12 via TATA) | 156 |
| CC(C)C[C@@H]1NC(=O)[C@H](CCC(N)=O)NC(=O)[C@H](CCCNC(=N)N)NC(=O)[C@@H]2CSCCC(=O)N3CN(CN(C3)C(=O)CCSC[C@@H](C(=O)N[C@@H](CCCNC(=N)N)C(=O)O)NC(=O)[C@H](CCCNC(=N)N)NC1=O)C(=O)CCSC[C@H](NC(=O)[C@H](N)CCCNC(=N)N)C(=O)N[C@@H](Cc1ccccc1)C(=O)N[C@@H](CCCNC(=N)N)C(=O)N[C@@H](CC(C)C)C(=O)N1CCC[C@H]1C(=O)N2 | 34.4 |
| Cc1cccc(C[C@@H]2NC(=O)[C@@H](NC(=O)[C@@H](N)CCCNC(=N)N)CSCCC(=O)N3CN4CN(C3)C(=O)CCSC[C@H](NC(=O)[C@@H]3CCCN3C(=O)[C@H](CC(C)C)NC(=O)[C@H](CCCNC(=N)N)NC2=O)C(=O)N[C@@H](CCCNC(=N)N)C(=O)N[C@@H](CCC(N)=O)C(=O)N[C@@H](CC(C)C)C(=O)N[C@@H](CCCNC(=N)N)C(=O)N[C@H](C(=O)N[C@@H](CCCNC(=N)N)C(=O)N[C@@H](Cc2c[nH]c3ccccc23)C(=O)O)CSCCC4=O)c1 | 3.7 |
